Data: patent publication US20210395327A1, “Growth Hormone-Releasing Hormone Antagonists and Uses Thereof” (United States Government As Represented By The Department …, priority 2019, published 2021)
Non-standard residues stand in square brackets, D forms with d. Residues, ends and D or L forms follow the SMILES beside them. *: point of attachment. Phenylacetyl(2,3,4,5,6-F5) = O=C(Cc1c(F)c(F)c(F)c(F)c1F)*; Phe(F5) = N[C@@H](Cc1c(F)c(F)c(F)c(F)c1F)C(=O)O; Phe(4-Cl) = N[C@@H](Cc1ccc(Cl)cc1)C(=O)O; hArg = N=C(N)NCCCC[C@H](N)C(=O)O; 12Ado = NCCCCCCCCCCCC(=O)O; Nle = CCCC[C@H](N)C(=O)O; Orn = NCCC[C@H](N)C(=O)O; Abu = CC[C@H](N)C(=O)O

Assays:
[1] = test system: GH release from rat pituitary cells; assay: Inhibition of GH release from rat pituitary cells in vitro (GH ELISA); assay type: cell-based; settings: for Relative GH release: analogs 20 nM, then with 1 nM GHRH(1-29)NH2 for 30 minutes, Control = 1.00; for inhibitory effects on the release of GH, compared with MIA-602 (in words): rat pituitary cells in vitro, 20 nM
Procedure: In vitro assessment of the antagonistic activity of GHRH analogs. Rats were decapitated and pituitaries were collected in pre-warmed HBSS (Hanks' Balanced Salt Solution). Tissue was then cut into small pieces and digested in HBSS medium containing 3% BSA, 50 μg/ml gentamycin and 0.5% collagenase for 50 minutes at 37° C. Cells were further dispersed by pipetting and passed through a 100 μm cell strainer with the addition of DMEM containing 50 μg/ml gentamycin. 10% horse serum and 2.5% FBS (growth medium). Cells were harvested at 475×g for 2 minutes, resuspended in fresh growth medium and seeded onto poly-D-lysine-coated 24-well plates (7 pituitaries/plate). Cells were left to recover for 4 days. Growth medium was then replaced with serum-free DMEM for 4 hours and GHRH analogs (at concentration of 20 nM) were added in DMEM containing 0.1% BSA for 30 minutes. Cells were replenished with medium containing the same concentration of the analogs and 1 nM GHRH(1-29)NH2 for 30 minutes. Medium from this step was collected, centrifuged at 800 g for 3 minutes and GH concentration was determined by ELISA (ALPCO Diagnostics, Mill Valley, Calif.) according to the manufacturer's instruction.

[2] = test system: HCC827 lung cancer cells; assay: In vitro cell viability, HCC827; assay type: cell-based, human; settings: Table 3B; 5 μM for 72 H; MIA-602 = 1
How it was run: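 Human tumour lines were exposed to GHRH antagonist at 1, 2.5 or 5 μM for 72 h with medium refreshed every 48 h, after 24 h in low-serum (0.5% FBS) medium. Cell viability (CellTiter 96) was expressed as inhibition relative to MIA602.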

[3] = test system: stomach cancer N87 xenograft; assay: Xenograft tumor growth in nude mice, N87; assay type: in vivo; settings: Stomach Ca N87, 4 weeks; for % Inhibition: vs control
Procedure: The peptides' activity was compared with GHRH antagonist MIA-602. All statistical analyzses were performed from comparing GHRA antagonists to non-treated tumor (control).
Peptides and chemicals. GHRH antagonists MIA-602 and AVR-GHRH antagonists (see Table 2 above) were synthesized by solid phase methods and purified by HPLC. The peptides were dissolved in DMSO and further diluted in 10% 1,2-propanediol. The final concentration of peptides was 50 µg/ml in 10% 1,2-propanediol containing 0.1% of DMSO.
Cell culture. Human cancer cell lines including pancreatic (PANC-1 and CFPAC-1), lung (HCC827 and H460), stomach (NCI-N87), prostate (PC3), brest (MX-1 and HCC-1806), colorectal (HT-29), and ovarian (SK-OV-3 and OVCAR-3) were obtained from the American Type Culture Collection (ATCC) and cultured at 37° C. in a humidified 95% air/5% CO2 atmosphere in the medium recommended by ATCC.
Xenograft models of human cancers in nude mice. Female athymic (NCr nu/nu) nude mice, 5- to 6-weeks-old, obtained from the Envigo labs (Tampa, Fla.), were housed in laminar airflow cabinets under pathogen-free conditions with a 12-h light/12-h dark schedule, and were fed autoclaved standard chow and water. To generate mice with xenografted tumors, tumor xenografts were initiated by subcutaneous (s.c.) injection of 107 human cancer cells into female nude mice. After about 4 weeks the resulting tumors were dissected and collected after removing necrosis tissues. The tumors were then cut into particles with size of 3 mm3 and transplanted s.c. by trocar needle into experimental animals. When tumors grew to the size of 50-60 mm3 (by volume), […] of 5 μg of GHRH antagonists MIA-602 or AVR-compounds (2-10 μg as indicated), or vehicle solutions (0.1% DMSO in 10% 1,2-propanediol) respectively. Tumor sizes were measured weekly.
Statistical analysis. One-way ANOVA followed by Bonferroni comparison were performed. Data are expressed as Mean±SEM. To determine statistical significance between animal groups, two-tailed Student's t-test was conducted. Differences were considered significant when p<0.05.
Results. […] FIG. 1A-N represents in vivo inhibition of tumor growth during the treatment with GHRH antagonist MIA-602 and selected AVR antagonists in nude mice xenografted with various human tumors including pancreatic cancer PANC-1 (FIG. 1A) and CFPAC-1 (FIG. 1I); lung cancer HCC827 (FIGS. 1B, C) and H460 (FIG. 1H); stomach cancer N87 (FIGS. 1D-F); colon cancer HT-29 (FIG. 1G); breast cancer MX-1 and HCC-1806 (FIGS. 1J, K); ovarian cancer SK-OV-3 and OVACAR-3 (FIGS. 1 L, M) and prostate cancer PC3 (FIG. 1N). See also Table 5.

Row | Structure (SMILES) | Relative GH release [1] | inhibitory effects on the release of GH, compared with MIA-602 (in words) [1] | In vitro relative inhibitory potency in comparison to MIA-602, HCC827 [2] | Tumor Growth % ([3]; Table 4E, 2 μg/day s.c.) [%] | % Inhibition ([3]; Table 4E, 2 μg/day s.c.) [%] | Tumor Growth % ([3]; Table 4E, 5 μg/day s.c.) [%] | % Inhibition ([3]; Table 4E, 5 μg/day s.c.) [%] | Tumor Growth % ([3]; Table 4F, 2 μg/day s.c.) [%] | % Inhibition ([3]; Table 4F, 2 μg/day s.c.) [%] | Tumor Growth % ([3]; Table 4F, 5 μg/day s.c.) [%] | % Inhibition ([3]; Table 4F, 5 μg/day s.c.) [%]
1 | CCCC[C@H](NC(=O)[C@@H](NC(=O)[C@H](CC(=O)O)NC(=O)[C@H](CCC(N)=O)NC(=O)[C@H](CC(C)C)NC(=O)[C@H](CC(C)C)NC(=O)[C@H](CCCCN)NC(=O)[C@H](CCCNC(=N)N)NC(=O)[C@H](C)NC(=O)[C@H](CO)NC(=O)[C@H](CC(C)C)NC(=O)[C@H](CCC(N)=O)NC(=O)[C@H](CC)NC(=O)[C@H](CC(C)C)NC(=O)[C@@H](NC(=O)[C@H](CCCCN)NC(=O)[C@H](CCCNC(=N)N)NC(=O)[C@H](Cc1ccc(OC)cc1)NC(=O)[C@H](CCCCNC(=N)N)NC(=O)[C@H](C)NC(=O)[C@@H](NC(=O)[C@H](Cc1c(F)c(F)c(F)c(F)c1F)NC(=O)[C@@H](NC(=O)[C@H](C)NC(=O)[C@H](CC(=O)O)NC(=O)[C@@H](CCCNC(=N)N)NC(=O)[C@H](Cc1ccc(O)cc1)NC(=O)CCCCCCCCCCCNC(=O)Cc1c(F)c(F)c(F)c(F)c1F)[C@@H](C)CC)[C@@H](C)O)C(C)C)[C@@H](C)CC)C(=O)N[C@H](CCCNC(=N)N)C(=O)N[C@@H](CCCCNC(=N)N)C(=O)NCCCCCCCCCCCC(N)=O [AVR-352, 5FPhAC-Ada-Tyr-DArg-Asp-Ala-Ile-5FPhe-Thr-Ala-Har-Tyr(Me)-Arg-Lys-Val-Leu-Abu-Gln-Leu-Ser-Ala-Arg-Lys-Leu-Leu-Gln-Asp-Ile-Nle-DArg-Har-Ada-NH2] ({Phenylacetyl(2,3,4,5,6-F5)-12Ado}-Y[dR]DAI[Phe(F5)]TA[hArg]Y(Me)RKVL[Abu]QLSARKLLQDI[Nle][dR][hArg][12Ado]-NH2) | 0.72 ± 0.03 | higher inhibitory effects than MIA-602 | 2.01 |  |  |  |  |  |  |  | 
2 | CCCC[C@H](NC(=O)[C@@H](NC(=O)[C@H](CC(=O)O)NC(=O)[C@H](CCC(N)=O)NC(=O)[C@H](CC(C)C)NC(=O)[C@H](CC(C)C)NC(=O)[C@H](CCCN)NC(=O)[C@H](Cc1c[nH]cn1)NC(=O)[C@H](C)NC(=O)[C@H](CO)NC(=O)[C@H](CC(C)C)NC(=O)[C@H](CCC(N)=O)NC(=O)[C@H](CC)NC(=O)[C@H](CC(C)C)NC(=O)[C@@H](NC(=O)[C@H](CCCN)NC(=O)[C@H](Cc1c[nH]cn1)NC(=O)[C@H](Cc1c(F)c(F)c(F)c(F)c1F)NC(=O)[C@H](CCCCNC(=N)N)NC(=O)[C@H](C)NC(=O)[C@@H](NC(=O)[C@H](Cc1ccc(Cl)cc1)NC(=O)[C@@H](NC(=O)[C@H](C)NC(=O)[C@H](CC(=O)O)NC(=O)[C@@H](CCCNC(=N)N)NC(=O)[C@H](Cc1ccc(O)cc1)NC(=O)CCCCCCCCCCCNC(=O)Cc1c(F)c(F)c(F)c(F)c1F)[C@@H](C)CC)[C@@H](C)O)C(C)C)[C@@H](C)CC)C(=O)N[C@H](CCCNC(=N)N)C(=O)N[C@@H](CCCCNC(=N)N)C(=O)NCCCCCCCCCCCC(=O)NC [AVR-543, 5FPhAC-Ada-Tyr-DArg-Asp-Ala-Ile-Cpa-Thr-Ala-Har-5FPhe-His-Orn-Val-Leu-Abu-Gln-Leu-Ser-Ala-His-Orn-Leu-Leu-Gln-Asp-Ile-Nle-DArg-Har-Ada-NHCH3] ({Phenylacetyl(2,3,4,5,6-F5)-12Ado}-Y[dR]DAI[Phe(4-Cl)]TA[hArg][Phe(F5)]H[Orn]VL[Abu]QLSAH[Orn]LLQDI[Nle][dR][hArg][12Ado]-NHMe) | 1.10 ± 0.01 |  | 0.961 | 406.8 | 48.4 | 313.90 | 64.8 |  |  |  | 
3 | CCCC[C@H](NC(=O)[C@@H](NC(=O)[C@H](CC(=O)O)NC(=O)[C@H](CCC(N)=O)NC(=O)[C@H](CC(C)C)NC(=O)[C@H](CC(C)C)NC(=O)[C@H](CCCCN)NC(=O)[C@H](CCCNC(=N)N)NC(=O)[C@H](C)NC(=O)[C@H](CO)NC(=O)[C@H](CC(C)C)NC(=O)[C@H](CCC(N)=O)NC(=O)[C@H](CC)NC(=O)[C@H](CC(C)C)NC(=O)[C@@H](NC(=O)[C@H](CCCCN)NC(=O)[C@H](CCCNC(=N)N)NC(=O)[C@H](Cc1c(F)c(F)c(F)c(F)c1F)NC(=O)[C@H](CCCCNC(=N)N)NC(=O)[C@H](C)NC(=O)[C@@H](NC(=O)[C@H](Cc1ccc(Cl)cc1)NC(=O)[C@@H](NC(=O)[C@H](C)NC(=O)[C@H](CC(=O)O)NC(=O)[C@@H](CCCNC(=N)N)NC(=O)[C@H](Cc1ccc(O)cc1)NC(=O)CCCCCCCCCCCNC(=O)Cc1c(F)c(F)c(F)c(F)c1F)[C@@H](C)CC)[C@@H](C)O)C(C)C)[C@@H](C)CC)C(=O)N[C@H](CCCNC(=N)N)C(=O)N[C@@H](CCCCNC(=N)N)C(=O)NCCCCCCCCCCCC(N)=O [AVR-353, 5FPhAC-Ada-Tyr-DArg-Asp-Ala-Ile-Cpa-Thr-Ala-Har-5FPhe-Arg-Lys-Val-Leu-Abu-Gln-Leu-Ser-Ala-Arg-Lys-Leu-Leu-Gln-Asp-Ile-Nle-DArg-Har-Ada-NH2] ({Phenylacetyl(2,3,4,5,6-F5)-12Ado}-Y[dR]DAI[Phe(4-Cl)]TA[hArg][Phe(F5)]RKVL[Abu]QLSARKLLQDI[Nle][dR][hArg][12Ado]-NH2) | 0.65 ± 0.08 | higher inhibitory effects than MIA-602 | 1.641 |  |  |  |  | 433.70 | 51.4 | 312.20 | 65.0
4 | CCCC[C@H](NC(=O)[C@@H](NC(=O)[C@H](CC(=O)O)NC(=O)[C@H](CCC(N)=O)NC(=O)[C@H](CC(C)C)NC(=O)[C@H](CC(C)C)NC(=O)[C@H](CCCCN)NC(=O)[C@H](CCCNC(=N)N)NC(=O)[C@H](C)NC(=O)[C@H](CO)NC(=O)[C@H](CC(C)C)NC(=O)[C@H](CCC(N)=O)NC(=O)[C@H](CC)NC(=O)[C@H](CC(C)C)NC(=O)[C@@H](NC(=O)[C@H](CCCCN)NC(=O)[C@H](CCCNC(=N)N)NC(=O)[C@H](Cc1c(F)c(F)c(F)c(F)c1F)NC(=O)[C@H](CCCCNC(=N)N)NC(=O)[C@H](C)NC(=O)[C@@H](NC(=O)[C@H](Cc1ccc(Cl)cc1)NC(=O)[C@@H](NC(=O)[C@H](C)NC(=O)[C@H](CC(=O)O)NC(=O)[C@@H](CCCNC(=N)N)NC(=O)[C@H](Cc1ccc(O)cc1)NC(=O)CCCCCCCCCCCNC(=O)Cc1c(F)c(F)c(F)c(F)c1F)[C@@H](C)CC)[C@@H](C)O)C(C)C)[C@@H](C)CC)C(=O)N[C@H](CCCNC(=N)N)C(=O)N[C@@H](CCCCNC(=N)N)C(=O)NCCCCCCCCCCCC(=O)NC [AVR-354] ({Phenylacetyl(2,3,4,5,6-F5)-12Ado}-Y[dR]DAI[Phe(4-Cl)]TA[hArg][Phe(F5)]RKVL[Abu]QLSARKLLQDI[Nle][dR][hArg][12Ado]-NHMe) | 0.90 ± 0.02 |  | 2.595 |  |  |  |  |  |  |  | 
